# Data taken from patent US6677350B1, “Beta-fluoroethyl thiourea compounds and use” (priority 1999, dated 2004).
# Like-named read-outs stand apart in the source and are kept apart here.
# System: M. tuberculosis H37Rv (ATCC 27294)
# Assay: In vitro anti-tuberculosis screening, BACTEC 460 radiometric system, percent inhibition of growth
# Format: cell-based, Mycobacterium tuberculosis
# Details: Mtb H37Rv; for inhibition at 12.5 µg/mL: Mycobacterium tuberculosis
# [1] = drug concentration 12.5 μg/mL, read-out: inhibition of the growth of Mtb
compound,measurement,setting,value
O=c1cc(-c2ccccc2I)oc2ccccc12 [Compound 100],anti-TB activity in words,12.5 μg/mL,weakly active or inactive
same,Activity % Inhibition at 12.5 μg/mL (flavones),"12.5 μg/mL, BACTEC 12B medium",22%
same,inhibition of the growth of Mtb,drug concentration 12.5 μg/mL,22%
O=C(c1ccccc1)c1ccc2c(=O)c(C(=O)c3ccccc3)c(-c3ccccc3)oc2c1 [Compound 110],Activity % Inhibition at 12.5 μg/mL (flavones),"12.5 μg/mL, BACTEC 12B medium",12%
COc1ccc2c(c1)OC(c1ccc(Cl)cc1)CC2=O (stereo not shown) [Compound 137],Activity % Inhibition at 12.5 μg/mL (flavanones),"12.5 μg/mL, BACTEC 12B medium",48%
O=C(/C=C/c1ccccc1)c1ccc(I)cc1O [Compound 45],Activity % inhibition at 12.5 μg/mL (chalcones),"12.5 μg/mL, BACTEC 12B medium",21%
same,inhibition of the growth of Mtb,drug concentration 12.5 μg/mL,21%
COc1ccc(O)c(C(=O)/C=C/c2ccco2)c1 [Compound 69],Activity % inhibition at 12.5 μg/mL (chalcone-like compounds),"12.5 μg/mL, BACTEC 12B medium",0%
Nc1ncccc1/C=C/C(=O)c1cc2ccccc2cc1O [Compound 74],Activity % inhibition at 12.5 μg/mL (chalcone-like compounds),"12.5 μg/mL, BACTEC 12B medium",0%
CN(C)c1ccc(/C=C/C(=O)c2ccncc2)cc1 [Compound 68],Activity % inhibition at 12.5 μg/mL (chalcone-like compounds),"12.5 μg/mL, BACTEC 12B medium",1%
COc1ccc(C(=O)/C=C/c2cccnc2)cc1 [Compound 71],Activity % inhibition at 12.5 μg/mL (chalcone-like compounds),"12.5 μg/mL, BACTEC 12B medium",0%
O=C(/C=C/c1ccncc1)c1ccco1 [Compound 75],Activity % inhibition at 12.5 μg/mL (chalcone-like compounds),"12.5 μg/mL, BACTEC 12B medium",0%
COc1ccc(C(=O)/C=C/c2ccccc2)c(O)c1 [Compound 1],Activity % inhibition at 12.5 μg/mL (chalcones),"12.5 μg/mL, BACTEC 12B medium",78%
same,inhibition of the growth of Mtb,drug concentration 12.5 μg/mL,78%
COc1ccc(/C=C/C(=O)c2cccc(I)c2O)cc1 [Compound 49],Activity % inhibition at 12.5 μg/mL (chalcones),"12.5 μg/mL, BACTEC 12B medium",0%
same,inhibition of the growth of Mtb,drug concentration 12.5 μg/mL,0%
O=C1c2ccccc2OC(c2ccccc2)C1(Br)Br (stereo not shown) [Compound 148],Activity % Inhibition at 12.5 μg/mL (flavanones),"12.5 μg/mL, BACTEC 12B medium",0%
O=C(/C=C/c1ccc(Cl)cc1)c1ccccc1O [Compound 27],Activity % inhibition at 12.5 μg/mL (chalcones),"12.5 μg/mL, BACTEC 12B medium",67%
same,inhibition of the growth of Mtb,drug concentration 12.5 μg/mL,67%
O=C(C=Cc1ccc(Br)cc1)c1ccccc1O [Compound 33],Activity % inhibition at 12.5 μg/mL (chalcones),"12.5 μg/mL, BACTEC 12B medium",70%
same,inhibition of the growth of Mtb,drug concentration 12.5 μg/mL,70%
O=c1cc(-c2ccccc2)oc2ccc(Br)cc12 [Compound 123],anti-TB activity in words,12.5 μg/mL,weakly active or inactive
same,Activity % Inhibition at 12.5 μg/mL (flavones),"12.5 μg/mL, BACTEC 12B medium",0%
COc1ccc(/C=C/C(=O)c2cccc(F)c2O)cc1 [Compound 23],Activity % inhibition at 12.5 μg/mL (chalcones),"12.5 μg/mL, BACTEC 12B medium",45%
O=C1CC(c2ccccc2)Oc2cc(I)ccc21 (stereo not shown) [Compound 141],Activity % Inhibition at 12.5 μg/mL (flavanones),"12.5 μg/mL, BACTEC 12B medium",9%
"O=C(/C=C/c1ccccc1I)c1ccccc1O [Compound 44, 2′-hydroxy-2-iodochalcone]",inhibition at 12.5 µg/mL,"12.5 μg/mL, BACTEC 12B medium, read-out: Activity % inhibition at 12.5 μg/mL (chalcones)",41%
same,inhibition at 12.5 µg/mL,[1],41%
COc1ccc(/C=C/C(=O)c2cc(C(=O)O)ccc2O)cc1 [Compound 16],Activity % inhibition at 12.5 μg/mL (chalcones),"12.5 μg/mL, BACTEC 12B medium",0%
"CC(=O)OC[C@H]1O[C@@H](Oc2cc(OC(C)=O)c3c(=O)cc(-c4ccc(OC(C)=O)cc4)oc3c2C2C(=O)c3c(OC(C)=O)cc(OC(C)=O)cc3OC2c2ccc(OC(C)=O)cc2)[C@H](OC(C)=O)[C@@H](OC(C)=O)[C@@H]1OC(C)=O (stereo partly shown) [Compound 177, Spicataside acetate]",Activity % Inhibition at 12.5 μg/mL (biflavonoids),"12.5 μg/mL, BACTEC 12B medium",0%
O=c1c(I)c(-c2ccccc2)oc2ccccc12 [Compound 127],anti-TB activity in words,12.5 μg/mL,weakly active or inactive
same,Activity % Inhibition at 12.5 μg/mL (flavones),"12.5 μg/mL, BACTEC 12B medium",0%
"O=c1c(O)c(-c2ccccc2)oc2ccccc12 [Compound 92, 3-hydroxyflavone]",inhibition at 12.5 µg/mL,"12.5 μg/mL, BACTEC 12B medium, read-out: Activity % Inhibition at 12.5 μg/mL (flavones)",38%
same,inhibition at 12.5 µg/mL,[1],38%
Nc1cccc(C(=O)/C=C/c2ccccc2I)c1 [Compound 41],Activity % inhibition at 12.5 μg/mL (chalcones),"12.5 μg/mL, BACTEC 12B medium",88%
same,inhibition of the growth of Mtb,drug concentration 12.5 μg/mL,88%
"O=C1c2c(O)cc(O)cc2OC(c2ccc(O)cc2)C1c1c(O[C@@H]2O[C@H](CO)[C@@H](O)[C@H](O)[C@H]2O)cc(O)c2c(=O)cc(-c3ccc(O)cc3)oc12 (stereo partly shown) [Compound 176, Spicataside]",Activity % Inhibition at 12.5 μg/mL (biflavonoids),"12.5 μg/mL, BACTEC 12B medium",0%
Nc1ccc(C(=O)C=Cc2cccnc2N)cc1 [Compound 73],Activity % inhibition at 12.5 μg/mL (chalcone-like compounds),"12.5 μg/mL, BACTEC 12B medium",0%
COc1ccc(-c2oc3cc(F)ccc3c(=O)c2O)cc1 [Compound 85],anti-TB activity in words,12.5 μg/mL,did not change the activity
same,Activity % Inhibition at 12.5 μg/mL (flavones),"12.5 μg/mL, BACTEC 12B medium",50%
COc1ccc(C(=O)/C=C/c2ccco2)c(O)c1 [Compound 65],Activity % inhibition at 12.5 μg/mL (chalcone-like compounds),"12.5 μg/mL, BACTEC 12B medium",3%
COc1ccc(-c2oc3ccc(Cl)cc3c(=O)c2O)cc1 [Compound 87],anti-TB activity in words,12.5 μg/mL,did not change the activity
same,Activity % Inhibition at 12.5 μg/mL (flavones),"12.5 μg/mL, BACTEC 12B medium",48%
O=c1c(Br)c(-c2ccccc2)oc2ccccc12 [Compound 108],Activity % Inhibition at 12.5 μg/mL (flavones),"12.5 μg/mL, BACTEC 12B medium",13%
COc1ccc(/C=C/C(=O)c2ccc([N+](=O)[O-])cc2)cc1 [Compound 4],Activity % inhibition at 12.5 μg/mL (chalcones),"12.5 μg/mL, BACTEC 12B medium",62%
O=c1cc(-c2ccccc2)oc2cc(I)ccc12 [Compound 102],anti-TB activity in words,12.5 μg/mL,weakly active or inactive
same,Activity % Inhibition at 12.5 μg/mL (flavones),"12.5 μg/mL, BACTEC 12B medium",20%
O=c1cc(-c2ccc(Br)cc2)oc2ccccc12 [Compound 97],anti-TB activity in words,12.5 μg/mL,weakly active or inactive
same,Activity % Inhibition at 12.5 μg/mL (flavones),"12.5 μg/mL, BACTEC 12B medium",26%
same,inhibition of the growth of Mtb,drug concentration 12.5 μg/mL,26%
